Data taken from patent US11964935B2, “Gingerol derivative having inhibitory activity against biofilm formation and pharmaceutical composition comprising same as effective ingredient for preventing or treating biofilm-caused infection symptom” (Korea University Research and Business Foundation, Sejong …, priority 2017, dated 2024).
“Also recorded” adds a separate entry of the source.

Assays:
P. aeruginosa PA14 [1] = experiment: Growth inhibition assay; assay type: cell-based, Pseudomonas aeruginosa; details: 100 μM, 24 h
Protocol: A 5% dilution of overnight culture of P. aeruginosa PA14 (OD595=1.0) containing either a positive control or the synthesized compound (0-100 μM) was inoculated into wells of a 96-well polystyrene microtiter plate (Sigma-Aldrich). The plate was incubated at 37° C. for 24 h. OD595 of the suspension culture was measured on the VICTOR ×5 multimode plate reader.

LasR [2] = target: T1, LasR (Pseudomonas aeruginosa, UniProt P25084); experiment: LasR reporter gene assay (E. coli reporter strain, luminescence, competition with OdDHL); assay type: cell-based; details: compound 1 μM; compound 1a 0, 0.1, 1, 10 and 100 μM
T1 construct: expressed in transfected cells; host or cells: E. coli DH5α (printed DHSα) co-transformed with pJN105L and pSC11

LasR [3] = target: T1, LasR; experiment: as above; assay type: cell-based; details: compound 1 μM or 10 μM in the presence of 1 μM OdDHL (compound 1a)
Protocol: This assay was conducted by modifying a previously reported method. E. coli DHSα co-transformed with two plasmids, pJN105L (LasR expression plasmid) and pSC11 (lasI::lacZ fusion plasmid), was used as a bioassay reporter strain. Overnight culture of the reporter strain with 10 μg/mL gentamicin and 50 μg/mL ampicillin was diluted in the Luria-Bertani (LB) medium (1:100). Then, the reporter strain (optical density at 595 nm [OD595] was 0.3) mixed with either a positive control or the synthesized compound was incubated with OdDHL (Sigma-Aldrich, St. Louis, MO., USA) and 0.4% arabinose (Sigma-Aldrich). After incubation at 37° C. for 1.5 h, OD595 was measured on a VICTOR ×5 multimode plate reader (PerkinElmer, Waltham, Mass., USA). The β-galactosidase activity was determined using a Tropix plus kit (Applied Biosystems, USA), and luminescence was measured on the VICTOR ×5 multimode plate reader. RLU ratio was quantified by dividing luminescence with OD595.
LasR-binding affinity of the synthesized gingerols (compounds 4-10) with various alkyl chain lengths was determined by measuring luminescence of an E. coli reporter strain. The reporter strain carried two plasmids, pJN105L (LasR expression plasmid) (Lee, J. H.; Lequette, Y.; Greenberg, E. P. Activity of purified QscR, a Pseudomonas aeruginosa orphan quorum-sensing transcription factor. Mol. Microbiol. 2006, 59, 602609.) and pSC11 (las1::lacZ fusion plasmid) (Chugani, S. A.; Whiteley, M.; Lee, K. M.; D'Argenio, D.; Manoil, C.; Greenberg, E. P. QscR, a modulator of quorum-sensing signal synthesis and virulence in Pseudomonas aeruginosa. Proc. Natl. Acad. Sci. U.S.A. 2001, 98, 27522757.), which enabled assay of competitive binding of OdDHL with each gingerol derivative 4-10. Antagonistic activities of the synthesized compounds at 1 μM or 10 μM were determined by measuring luminescence in the presence of 1 μM OdDHL (compound 1a) and presented as relative luminescence unit (RLU) ratio. Three compounds (compounds 1b, 1c, and 1d) served as positive controls. […] Just as the LasR inhibition, inhibition of biofilm formation also strengthened as the carbon chain was extended at 10 μM ((B) of FIG. 3). However, inhibition of biofilm formation decreased with 9-gingerol (compound 9) and 10-gingerol (compound 10) at 100 μM ((C) of FIG. 3) because of increased bacterial growth inhibition. […] This effect may be due to the fact that compounds 9 and 10 act as a surfactant, which inhibits bacterial growth. Agonistic activities of compounds 4-10 in an E. coli reporter assay system in the absence of OdDHL were next examined.

P. aeruginosa PA14 [4] = experiment: Dynamic biofilm formation assay (drip-flow reactor, CLSM); assay type: cell-based, Pseudomonas aeruginosa; details: for Biofilm thickness / Biofilm volume: 10 μM compound, Comstat2; for Biofilm thickness / Biofilm volume / Biofilm formation in CLSM images, in words: 48 h drip-flow reactor; for Biofilm formation in CLSM images, in words: compared with DMSO or compound 1c
Protocol: Glass slides were dipped into a Petri dish containing 2 mL of a P. aeruginosa PA14 suspension (OD595=1.0) and 18 mL of the AB medium, followed by incubation at 37° C. for 24 h to let the cells adhere to the slides. The slides were then inserted into a drip-flow reactor (DFR-110, BioSurface, Mont., USA). The AB medium with either a positive control or the synthesized compound (0-10 μM) was fed into the reactor continuously via a peristaltic pump (Masterflex C/L tubing pumps, Cole-Parmer, IL, USA) at 0.3 mL/min After operation of the reactor at 37° C. for 48 h, the cells on the slides were washed two times with PBS. The biofilm cells were stained with fluorescein isothiocyanate-labeled type IV ConA (Sigma-Aldrich) and SYPRO Ruby (Ruby, Invitrogen, Carlsbad, CA, USA) for 15 min, respectively. CLSM images were captured via a 20× objective lens (W N-Achroplan 20×/0.5 W [DIC] M27) with green fluorescence (ConA, excitation wavelength of 490 nm, emission wavelength of 525 nm) and red fluorescence (Ruby, excitation wavelength of 470 nm, emission wavelength of 618 nm) and were analyzed in the Zen 2011 software (Carl Zeiss, Jena, Germany). For quantification, biofilm volume (μm^3/μm^2) and average thickness (μm) were measured by means of Comstat2 in ImageJ.
A dynamic biofilm formation assay of compounds 41 and 42 was performed in a drip-flow reactor. Compound 1c served as a positive control, and DMSO served as a negative control. After 48 h drip-flow reactor operation, the biofilm was stained with Ruby and concanavalin A (ConA). Ruby (red) is a reagent for staining protein, and ConA (green) is for carbohydrate of biofilm. As shown in (A) of FIG. 8, the biofilm in the presence of DMSO formed with typical mushroom-like morphology. […] Biofilm volume and thickness with compound 41 were the lowest among the three groups (Table 1).

P. aeruginosa PA14 [5] = experiment: Static biofilm formation assay; assay type: cell-based, Pseudomonas aeruginosa
Protocol: Overnight culture of P. aeruginosa PA14 (OD595=1.0) was diluted (1:20) with the AB medium (300 mM NaCl, 50 mM MgSO4, 0.2% vitamin-free casamino acids, 10 mM potassium phosphate, 1 mM L-arginine, and 1% glucose, pH 7.5) (1:20) containing with either positive controls or synthesized compounds (0-100 μM). The dilutions were aliquoted into borosilicate bottles, and the bottles were incubated at 37° C. for 24 h without agitation. After that, OD595 of the cell suspension was measured on the VICTOR ×5 multimode plate reader. The biofilm cells attached to the bottle were washed two times with phosphate buffered saline (PBS; 137 mM NaCl, 2.7 mM KCl, 10 mM Na2HPO4, and 2 mM KH2PO4, pH 7.2) and stained with 0.1% crystal violet for […] Next, the stained biofilm cells were eluted with 100% ethyl alcohol, and OD540 was measured on the VICTOR ×5 multimode plate reader. The biofilm formation was quantified by dividing OD540 with OD595.

P. aeruginosa = details: cited from earlier work

T1 sequence (P25084 whole entry): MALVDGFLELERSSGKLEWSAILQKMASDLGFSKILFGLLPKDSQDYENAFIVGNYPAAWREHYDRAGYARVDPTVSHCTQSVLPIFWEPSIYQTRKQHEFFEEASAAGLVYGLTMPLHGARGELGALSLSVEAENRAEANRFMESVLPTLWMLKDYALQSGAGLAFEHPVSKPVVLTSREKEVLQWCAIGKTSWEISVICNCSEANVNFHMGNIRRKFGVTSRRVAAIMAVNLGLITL

| Compound | Bacterial growth inhibition (P. aeruginosa PA14 [1]) | LasR-antagonistic activity / LasR-binding affinity (RLU ratio), in words (LasR [3]) | Biofilm thickness (P. aeruginosa PA14 [4]; CLSM) [μm] | Biofilm volume (P. aeruginosa PA14 [4]; CLSM) [μm^3/μm^2] | Biofilm formation in CLSM images, in words (P. aeruginosa PA14 [4]; 10 μM) | Inhibition of biofilm formation at 100 μM, in words (P. aeruginosa PA14 [5]; 24 h, static) | further results |
| --- | --- | --- | --- | --- | --- | --- | --- |
| CCCCCCC[C@@H](O)CC(=O)/C=C/c1ccc(O)c(OC)c1 [Compound 41, (R,E)-5-Hydroxy-1-(4-hydroxy-3-methoxyphenyl)dodec-1-en-3-one] | bacterial growth inhibition was not observed | stronger LasR-binding affinity | 10.3 ± 0.1 | 7.4 ± 0.2 | relatively thin and sparse; also recorded: inhibited biofilm formation more effectively than compound 1c did |  | Binding reversibility to LasR (LasR [2]): binds reversibly to LasR; Volume of carbohydrates in biofilm compared to the other groups (P. aeruginosa PA14 [4]; ConA staining, CLSM, 10 μM): 47-74%; Volume of proteins in biofilm compared to the other groups (P. aeruginosa PA14 [4]; Ruby staining, CLSM, 10 μM): 23-56%; Inhibition of biofilm formation, in words (P. aeruginosa PA14 [5]; 10 μM, 24 h, static): greater inhibition of biofilm formation |
| CCCCC[C@H](O)CC(=O)CCc1ccc(O)c(OC)c1 [Compound 1b, (S)-6-gingerol] |  |  |  |  |  |  | Biofilm formation and production of virulence factors (previously demonstrated) (P. aeruginosa; competition with OdDHL for LasR): reduces biofilm formation and production of virulence factors |
| O=C1C=C(Br)/C(=C/Br)O1 [Compound 1d, (Z)-4-bromo-5-(bromomethylene)furan-2(5H)-one] |  |  |  |  |  |  | Expression of virulence factors (prior report) (P. aeruginosa; interference with P. aeruginosa QS systems): inhibits the expression of virulence factors |
| CCCCCCCCC(O)CC(=O)CCc1ccc(O)c(OC)c1 (stereo not drawn) [Compound 9, 5 -Hydroxy-1-(4-hydroxy-3-methoxyphenyl)tridecan-3-one] | inhibited bacterial growth significantly |  |  |  |  | decreased |  |
| CCCCCCC[C@@H](O)CC(=O)CCc1ccc(O)c(OC)c1 [Compound 42, (R)-5-Hydroxy-1-(4-hydroxy-3-methoxyphenyl)dodecan-3-one] | bacterial growth inhibition was not observed | much stronger LasR-binding affinity than compound 1c | 13.9 ± 0.1 | 9.7 ± 1.1 | relatively thin and sparse; also recorded: inhibited biofilm formation more effectively than compound 1c did |  | Biofilm formation relative to compound 1c (P. aeruginosa PA14 [5]; static assay, 10 μM, effect of compound 1c set to 100%): 72% |
| CCCCCCCCCC(O)CC(=O)CCc1ccc(O)c(OC)c1 (stereo not drawn) [Compound 10, 5-Hydroxy-1-(4-hydroxy-3-methoxyphenyl)tetradecan-3-one] | inhibited bacterial growth significantly |  |  |  |  | decreased |  |
